Data: patent US9611267B2, “Substituted tricyclic compounds as FGFR inhibitors” (Incyte Corporation, priority 2012, dated 2017)
Like-named read-outs stand apart in the source and are kept apart here.

Experiments:
Format in all cases: biochemical
FGFR3 = FGFR3 (Homo sapiens (Human), UniProt P22607); assay: FGFR enzymatic assay (FRET peptide phosphorylation), FGFR3
In short: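 FRET assay of peptide phosphorylation by FGFR3 in HEPES pH 7.5 buffer with MgCl2, EGTA, Tween-20 and DTT. Enzyme was pre-incubated 5-10 min with compound, and the reaction ran 1 hr at 25° C. IC50 came from a variable-slope sigmoidal fit.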

FGFR1 = FGFR1 (Homo sapiens (Human), UniProt P11362); assay: FGFR enzymatic assay (FRET peptide phosphorylation), FGFR1
FGFR1, sequence (P11362 22-822): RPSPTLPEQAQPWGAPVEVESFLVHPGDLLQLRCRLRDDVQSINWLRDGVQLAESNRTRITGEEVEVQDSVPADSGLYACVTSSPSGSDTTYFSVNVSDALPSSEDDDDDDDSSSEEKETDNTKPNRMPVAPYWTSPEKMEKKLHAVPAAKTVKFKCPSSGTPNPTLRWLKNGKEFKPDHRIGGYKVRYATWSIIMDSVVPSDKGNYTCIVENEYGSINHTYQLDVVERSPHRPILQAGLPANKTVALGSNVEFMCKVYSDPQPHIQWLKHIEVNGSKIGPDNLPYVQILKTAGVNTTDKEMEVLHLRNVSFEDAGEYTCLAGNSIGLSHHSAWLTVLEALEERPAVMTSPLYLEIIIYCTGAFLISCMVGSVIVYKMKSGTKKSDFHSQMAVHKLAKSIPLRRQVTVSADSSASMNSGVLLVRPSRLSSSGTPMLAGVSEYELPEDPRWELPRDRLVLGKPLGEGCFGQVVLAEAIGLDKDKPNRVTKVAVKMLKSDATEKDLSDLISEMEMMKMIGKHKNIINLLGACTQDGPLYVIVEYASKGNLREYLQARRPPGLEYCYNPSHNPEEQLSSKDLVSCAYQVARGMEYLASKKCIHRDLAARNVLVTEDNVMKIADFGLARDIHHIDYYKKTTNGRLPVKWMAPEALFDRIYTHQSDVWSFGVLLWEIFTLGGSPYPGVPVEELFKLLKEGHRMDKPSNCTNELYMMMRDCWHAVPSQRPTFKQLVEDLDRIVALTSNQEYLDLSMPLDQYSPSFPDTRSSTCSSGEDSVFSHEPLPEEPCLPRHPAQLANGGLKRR
In short: (§1)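 Recombinant kinase was pre-incubated 5–10 min with serially diluted inhibitor in HEPES buffer (10 mM MgCl2, 5 mM DTT, pH 7.5; buffer described for FGFR3). Peptide phosphorylation ran 1 h at 25 °C and was detected by FRET after ~1 h equilibration. IC50 values come from variable-slope sigmoidal fits.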

FGFR2 = FGFR2 (Homo sapiens (Human), UniProt P21802); assay: FGFR enzymatic assay (FRET peptide phosphorylation), FGFR2
FGFR2, sequence (P21802 22-821): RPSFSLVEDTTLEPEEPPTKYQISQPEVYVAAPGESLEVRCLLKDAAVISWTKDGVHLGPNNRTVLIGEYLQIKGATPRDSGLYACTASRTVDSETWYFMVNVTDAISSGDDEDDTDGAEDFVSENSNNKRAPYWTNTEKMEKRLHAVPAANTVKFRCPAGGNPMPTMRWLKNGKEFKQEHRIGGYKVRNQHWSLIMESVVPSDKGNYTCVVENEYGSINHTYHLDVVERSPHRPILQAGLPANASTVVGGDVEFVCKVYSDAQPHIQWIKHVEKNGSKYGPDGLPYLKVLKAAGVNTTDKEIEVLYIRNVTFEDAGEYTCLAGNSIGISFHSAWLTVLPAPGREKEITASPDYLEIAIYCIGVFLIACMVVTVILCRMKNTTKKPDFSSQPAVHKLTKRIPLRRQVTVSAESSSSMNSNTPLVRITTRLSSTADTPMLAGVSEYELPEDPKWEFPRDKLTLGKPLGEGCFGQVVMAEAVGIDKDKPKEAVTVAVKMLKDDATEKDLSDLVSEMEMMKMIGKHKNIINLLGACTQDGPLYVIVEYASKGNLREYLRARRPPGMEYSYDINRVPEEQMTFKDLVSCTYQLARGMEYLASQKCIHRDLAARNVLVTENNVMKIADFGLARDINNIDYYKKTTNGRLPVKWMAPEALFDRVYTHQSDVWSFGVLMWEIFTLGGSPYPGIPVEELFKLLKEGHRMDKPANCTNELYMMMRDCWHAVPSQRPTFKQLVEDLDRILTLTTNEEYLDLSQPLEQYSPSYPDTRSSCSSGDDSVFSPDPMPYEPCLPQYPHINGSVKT
In short: as §1

[1] = FGFR3 enzyme (Millipore), ATP 140 μM
[2] = FGFR1 enzyme 0.02 nM, ATP 210 μM
[3] = FGFR2 enzyme 0.01 nM, ATP 100 μM

FGFR3, sequence (P22607 23-806): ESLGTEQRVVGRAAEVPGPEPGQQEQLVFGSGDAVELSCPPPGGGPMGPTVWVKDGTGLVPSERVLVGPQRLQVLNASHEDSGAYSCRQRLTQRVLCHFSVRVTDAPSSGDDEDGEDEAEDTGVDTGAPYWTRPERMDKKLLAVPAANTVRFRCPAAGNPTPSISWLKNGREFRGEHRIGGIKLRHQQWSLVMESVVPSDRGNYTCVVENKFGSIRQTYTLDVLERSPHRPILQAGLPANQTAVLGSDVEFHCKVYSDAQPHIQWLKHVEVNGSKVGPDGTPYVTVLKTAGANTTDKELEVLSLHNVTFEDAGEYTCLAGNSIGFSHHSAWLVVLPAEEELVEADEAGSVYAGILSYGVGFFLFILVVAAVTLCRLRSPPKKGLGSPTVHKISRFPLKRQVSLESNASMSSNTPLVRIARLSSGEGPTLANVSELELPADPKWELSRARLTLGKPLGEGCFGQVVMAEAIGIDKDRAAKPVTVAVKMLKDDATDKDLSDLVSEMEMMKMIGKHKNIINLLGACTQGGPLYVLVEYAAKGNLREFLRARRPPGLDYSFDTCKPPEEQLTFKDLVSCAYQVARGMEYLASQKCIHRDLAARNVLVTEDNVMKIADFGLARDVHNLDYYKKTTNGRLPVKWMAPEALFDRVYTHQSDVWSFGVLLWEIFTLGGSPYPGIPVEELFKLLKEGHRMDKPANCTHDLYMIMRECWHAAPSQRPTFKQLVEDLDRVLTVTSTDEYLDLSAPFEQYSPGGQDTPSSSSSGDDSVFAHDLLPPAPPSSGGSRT

IC50 (FGFR3; [1])	IC50 (FGFR1; [2])	IC50 (FGFR2; [3])	Structure (SMILES)	IC50 (FGFR3)	IC50 (FGFR1)	IC50 (FGFR2)
< 100 nM	< 100 nM	< 100 nM	COc1cc(OC)cc(N2Cc3cnc4[nH]c(C(=O)N(C)C)cc4c3N(C)C2=O)c1 [Example 19, 3-(3,5-Dimethoxyphenyl)-N,N,1-trimethyl-2-oxo-2,3,4,7-tetrahydro-1H-pyrrolo[3′,2′:5,6]pyrido[4,3-d]pyrimidine-8-carboxamide]			
< 100 nM	< 100 nM	< 100 nM	COc1cc(OC)c(F)c(N2Cc3cnc4[nH]ccc4c3N(C3CC3)C2=O)c1F [Example 45, 1-Cyclopropyl-3-(2,6-difluoro-3,5-dimethoxyphenyl)-1,3,4,7-tetrahydro-2H-pyrrolo[3′,2′:5,6]pyrido[4,3-d]pyrimidin-2-one]			
< 100 nM	< 100 nM	< 100 nM	COc1cc(OC)c(F)c(N2Cc3cnc4[nH]c(CCN5CC(OC)C5)cc4c3N(C)C2=O)c1F [Example 144, 3-(2,6-difluoro-3,5-dimethoxyphenyl)-8-[2-(3-methoxyazetidin-1-yl)ethyl]-1-methyl-1,3,4,7-tetrahydro-2Hpyrrolo[3′,2′:5,6]pyrido[4,3-d]pyrimidin-2-one]			
< 100 nM	< 100 nM	< 100 nM	COc1cc(OC)c(F)c(N2Cc3cnc4[nH]ncc4c3N([C@H]3CCCOC3)C2=O)c1F [Example 88, 3-(2,6-difluoro-3,5-dimethoxyphenyl)-1-[(3S)-tetrahydro-2H-pyran-3-yl]-1,3,4,7-tetrahydro-2H-pyrazolo[4′,3′:5,6]pyrido[4,3-d]pyrimidin-2-one]			
			COc1cc(OC)c(F)c(N2Cc3cnc4[nH]ccc4c3C3(CCN(C)CC3)C2=O)c1F [Example 151, 7′-(2,6-difluoro-3,5-dimethoxyphenyl)-1-methyl-6′,7′-dihydrospiro[piperidine-4,9′-pyrrolo[2,3-c][2,7]naphthyridin]-8′(3′H)-one]	< 100 nM	< 100 nM	< 100 nM
< 100 nM	< 100 nM	< 100 nM	COc1cc(OC)c(F)c(N2Cc3cnc4[nH]c(CN5CCOCC5)cc4c3C(C)(C)C2=O)c1F [Example 152, 7-(2,6-difluoro-3,5-dimethoxyphenyl)-9,9-dimethyl-2-(morpholin-4-ylmethyl)-3,6,7,9-tetrahydro-8H-pyrrolo[2,3-c]-2,7-naphthyridin-8-one]			
